Data as given in ChEMBL document CHEMBL5214890 (Eur J Med Chem, 2021).
Active and inactive are the calls of the source.

Tests used:
Glucagon receptor = Glucagon receptor (Homo sapiens, UniProt P47871); test: Agonist activity at human GCGR expressed in HEK293 cells incubated for 30 mins and assessed as increase in cAMP accumulation measured by HTRF assay; format: functional, cell-based
Mus musculus [1] = test: Antidiabetic activity in DIO mouse assessed as reduction in plasma insulin level at 10 nmol/kg, ip pretreated with compound and followed by glucose challenge and measured by oral glucose tolerance test; format: functional, organism-based
Rattus norvegicus = test: Antidiabetic activity in overnight fasted male Sprague-Dawley rat assessed as reduction in food intake at 100 nmol/kg, ip; format: functional; parameters: scale not given: the % may be the effect or the level left
[2] = Half-life in male Sprague-Dawley rat at 25 nmol/kg, iv administered as single dose and measured after 24 hrs by LC-MS/MS analysis; format: ADME, organism-based; settings: in vivo
[3] = AUC (infinity) in male Sprague-Dawley rat at 25 nmol/kg, iv administered as single dose and measured after 24 hrs by LC-MS/MS analysis; format: ADME, organism-based; parameters: time 24 hrs, dose 25 nmol/kg, route iv; settings: in vivo
[4] = Cmax in male Sprague-Dawley rat at 25 nmol/kg, sc administered as single dose and measured after 24 hrs by LC-MS/MS analysis; format: ADME, organism-based; parameters: time 24 hrs, dose 25 nmol/kg, route sc; settings: in vivo
[5] = AUC (inifinity) in male Sprague-Dawley rat at 25 nmol/kg, sc administered as single dose and measured after 24 hrs by LC-MS/MS analysis; format: ADME, organism-based; parameters: dose 25 nmol/kg, time 24 hrs, route sc; settings: in vivo
Mus musculus [6] = test: Antidiabetic activity in non-fasted male db/db mouse assessed as reduction in glucose level at 10 to 100 nmol/kg, sc; format: functional, organism-based; settings: dose 10-100 nmol/kg, DDE = dose-dependent effect
[7] = Toxicity in male DIO mouse assessed as reduction in body weight at 100 nmol/kg, sc administered twice daily for 7 days; format: organism-based; parameters: scale not given: the % may be the effect or the level left; settings: in vivo, 168 h, time 7 day
Mus musculus [8] = test: Antidiabetic activity in male DIO mouse assessed as decrease in fasted blood glucose at 100 nmol/kg, sc administered twice daily for 7 days; format: functional, organism-based; settings: time 7.0 day
[9] = Toxicity in male DIO mouse assessed as change in Cre at 100 nmol/kg, sc administered twice daily for 7 days; format: organism-based; settings: in vivo, 168 h, time 7 day
[10] = Toxicity in male DIO mouse assessed as change in serum lipase at 100 nmol/kg, sc administered twice daily for 7 days; format: organism-based; settings: in vivo, 168 h, time 7 day
[11] = Toxicity in male db/db mouse assessed as reduction in body weight at 100 nmol/kg, sc administered twice daily for 7 days; format: organism-based; settings: in vivo, 168 h, time 7 day
Mus musculus [12] = test: Antidiabetic activity in male db/db mouse assessed as decrease in fasted blood glucose at 100 nmol/kg, sc administered twice daily for 7 days; format: functional, organism-based; settings: time 7.0 day
[13] = Toxicity in male db/db mouse assessed as change in liver AST level at 100 nmol/kg, sc administered twice daily for 7 days; format: organism-based; settings: in vivo, 168 h, time 7 day
[14] = Toxicity in male db/db mouse assessed as change in Cre at 100 nmol/kg, sc administered twice daily for 7 days; format: organism-based; settings: in vivo, 168 h, time 7 day
[15] = Toxicity in male db/db mouse assessed as change in BUN at 100 nmol/kg, sc administered twice daily for 7 days; format: organism-based; settings: in vivo, 168 h, time 7 day
[16] = Toxicity in male db/db mouse assessed as change in serum lipase at 100 nmol/kg, sc administered twice daily for 7 days; format: organism-based; settings: in vivo, 168 h, time 7 day
Mus musculus [17] = test: Antidiabetic activity in male db/db mouse assessed as reduction in blood glucose level at 30 nmol/kg, sc administered twice daily for 35 days; format: functional, organism-based; settings: time 35.0 day
Mus musculus [18] = test: Antidiabetic activity in male db/db mouse assessed as improvement in glucose tolerance at 30 nmol/kg, sc administered twice daily for 35 days; format: functional, organism-based; settings: time 35.0 day
Mus musculus [19] = test: Antidiabetic activity in male db/db mouse assessed as increase in islet area at 30 nmol/kg, sc administered twice daily for 35 days; format: functional, organism-based; settings: time 35.0 day
[20] = Toxicity in male db/db mouse assessed as change in Cre level at 30 nmol/kg, sc administered twice daily for 35 days; format: organism-based; settings: in vivo, 840 h, time 35 day
[21] = Toxicity in male db/db mouse assessed as change in serum amylase level at 30 nmol/kg, sc administered twice daily for 35 days; format: organism-based; settings: in vivo, 840 h, time 35 day
Mus musculus [22] = test: Antidiabetic activity in male […] assessed as reduction in fat mas at 30 nmol/kg, sc administered twice daily for 3 weeks; format: functional, organism-based
Mus musculus [23] = test: Antidiabetic activity in male […] assessed as improvement in glucose tolerance at 30 nmol/kg, sc administered twice daily for 3 weeks; format: functional, organism-based
Mus musculus [24] = test: Antidiabetic activity in male […] assessed as decrease in serum total cholesterol level at 30 nmol/kg, sc administered twice daily for 3 weeks; format: functional, organism-based
Mus musculus [25] = test: Antidiabetic activity in male […] assessed as decrease in serum triglycerides level at 30 nmol/kg, sc administered twice daily for 3 weeks; format: functional, organism-based

Glucagon receptor, sequence (P47871 whole entry): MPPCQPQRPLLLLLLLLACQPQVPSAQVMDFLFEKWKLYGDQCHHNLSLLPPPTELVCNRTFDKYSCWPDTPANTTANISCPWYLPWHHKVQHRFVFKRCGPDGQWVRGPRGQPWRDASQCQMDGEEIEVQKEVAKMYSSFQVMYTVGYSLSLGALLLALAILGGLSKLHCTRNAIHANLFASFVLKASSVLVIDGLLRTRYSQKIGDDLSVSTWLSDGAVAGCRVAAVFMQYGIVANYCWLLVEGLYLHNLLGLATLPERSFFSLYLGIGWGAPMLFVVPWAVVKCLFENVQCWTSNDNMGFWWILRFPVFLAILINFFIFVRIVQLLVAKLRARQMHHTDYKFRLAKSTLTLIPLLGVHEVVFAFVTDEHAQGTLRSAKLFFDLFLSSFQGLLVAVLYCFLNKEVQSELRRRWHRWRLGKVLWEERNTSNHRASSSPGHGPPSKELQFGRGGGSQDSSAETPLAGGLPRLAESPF

CCCCCCCCCCCCCCCC(=O)N[C@@H](CCC(=O)NCCCC[C@H](NC(=O)[C@H](Cc1ccc(O)cc1)NC(=O)[C@H](CCCCN)NC(=O)[C@H](CO)NC(=O)[C@@H](NC(=O)[C@H](CC(=O)O)NC(=O)[C@H](CC(N)=O)NC(=O)[C@@H](NC(=O)[C@H](Cc1ccc(O)cc1)NC(=O)[C@@H](NC(=O)CNC(=O)[C@H](CCC(N)=O)NC(=O)[C@@H](CO)NC(=O)[C@@H](N)Cc1c[nH]cn1)[C@@H](C)O)[C@@H](C)O)C(C)C)C(=O)N[C@@H](CC(=O)O)C(=O)N[C@@H](CO)C(=O)N[C@@H](CCCNC(=N)N)C(=O)N[C@@H](CCCNC(=N)N)C(=O)N[C@@H](C)C(=O)N[C@@H](CCC(N)=O)C(=O)N[C@@H](CC(=O)O)C(=O)N[C@@H](Cc1ccccc1)C(=O)N[C@H](C(=O)N[C@@H](CCC(=O)O)C(=O)N[C@@H](Cc1c[nH]c2ccccc12)C(=O)N[C@@H](CC(C)C)C(=O)N[C@@H](CCCCN)C(=O)N[C@@H](CC(N)=O)C(=O)NCC(=O)NCC(=O)N1CCC[C@H]1C(=O)N[C@@H](CO)C(=O)N[C@@H](CO)C(=O)NCC(=O)N[C@@H](C)C(=O)N1CCC[C@H]1C(=O)N1CCC[C@H]1C(=O)N1CCC[C@H]1C(=O)N[C@@H](CO)C(N)=O)[C@@H](C)CC)C(=O)O
active: Activity (Mus musculus [1]) | Activity (Mus musculus [6]) Dde | Activity (Mus musculus [8]) | Activity (Mus musculus [12]) | Activity (Mus musculus [17]) | Activity (Mus musculus [18]) | Activity (Mus musculus [19]) | Activity (Mus musculus [22]) | Activity (Mus musculus [23]) | Activity (Mus musculus [24]) | Activity (Mus musculus [25])
4610 ng·h/mL: AUC at 24 h [5]
0.098 nM: EC50 (Glucagon receptor)
16.3%: Activity [7]
Non-Toxic: Activity [9] | Activity [10] | Activity [11] | Activity [13] | Activity [14] | Activity [15] | Activity [16] | Activity [20] | Activity [21]
2.6 h: half-life [2]
4200 ng·h/mL: AUC(0-inf) [3]
519 ng/mL: Cmax [4]
29%: Activity (Rattus norvegicus)
